Test results taken from the Kinase Knowledgebase extract (Sharma et al. 2016).

biological target: PIK3CD (Human) (UniProt O00329); assay: Assessment of PIK3CD Kinase Activity
Sequence (O00329 whole entry, looked up): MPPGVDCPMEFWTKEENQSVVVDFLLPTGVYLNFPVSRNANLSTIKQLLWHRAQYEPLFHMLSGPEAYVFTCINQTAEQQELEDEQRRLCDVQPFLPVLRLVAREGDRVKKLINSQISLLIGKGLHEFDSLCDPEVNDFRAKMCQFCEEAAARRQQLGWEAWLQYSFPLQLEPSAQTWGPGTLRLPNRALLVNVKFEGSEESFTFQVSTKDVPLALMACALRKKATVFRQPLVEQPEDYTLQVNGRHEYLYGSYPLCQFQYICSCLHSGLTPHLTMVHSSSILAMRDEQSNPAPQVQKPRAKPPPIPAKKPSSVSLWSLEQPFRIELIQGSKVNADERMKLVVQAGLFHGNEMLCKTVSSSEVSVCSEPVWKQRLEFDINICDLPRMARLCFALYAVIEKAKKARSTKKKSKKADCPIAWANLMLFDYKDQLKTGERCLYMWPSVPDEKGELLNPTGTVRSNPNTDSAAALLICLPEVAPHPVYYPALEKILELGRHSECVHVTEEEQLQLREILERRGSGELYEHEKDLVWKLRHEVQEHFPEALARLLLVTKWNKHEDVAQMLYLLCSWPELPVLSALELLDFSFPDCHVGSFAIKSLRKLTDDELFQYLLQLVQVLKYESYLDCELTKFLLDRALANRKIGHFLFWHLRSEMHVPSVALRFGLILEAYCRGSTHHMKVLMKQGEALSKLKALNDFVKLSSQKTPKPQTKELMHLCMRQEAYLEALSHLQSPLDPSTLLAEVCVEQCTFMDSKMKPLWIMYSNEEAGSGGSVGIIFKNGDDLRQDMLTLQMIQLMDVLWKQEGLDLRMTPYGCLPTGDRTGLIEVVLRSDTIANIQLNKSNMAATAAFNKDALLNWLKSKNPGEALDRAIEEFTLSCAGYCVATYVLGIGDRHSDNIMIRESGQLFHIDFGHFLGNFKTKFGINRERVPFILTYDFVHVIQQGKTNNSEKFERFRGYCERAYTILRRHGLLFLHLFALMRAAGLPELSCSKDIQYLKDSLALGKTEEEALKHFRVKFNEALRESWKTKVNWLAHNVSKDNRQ

SMILES	IC50 [nM]
COc1c(C(C)Nc2ncnc3[nH]cnc23)cc(Cl)c(C)c1C1CC(=O)N(C)C1 (stereo not given)	< 50
COc1c(-c2ccncc2)cc(Cl)cc1C(C)Nc1ncnc2[nH]cnc12 (stereo not given)	50 to 100
CNC(=O)c1ccc(-c2c(C)c(Cl)cc(C(C)Nc3ncnc4[nH]cnc34)c2OC)cc1F (stereo not given)	< 50
CCOc1c(C(C)Nc2ncnc3[nH]cnc23)cc(Cl)c(C#N)c1C1CN(C(C)C)C1 (stereo not given)	< 50
COc1c(C(C)Nc2ncnc3[nH]cnc23)cc(Cl)c(F)c1C1=CCN(S(C)(=O)=O)CC1 (stereo not given)	< 50
COc1c(C(C)Nc2ncnc3[nH]cnc23)cc(Cl)c(C)c1-c1cncc(C#N)c1 (stereo not given)	< 50
COc1c(C(C)Nc2ncnc3[nH]cnc23)cc(Cl)c(C)c1-c1ccc(C(=O)N2CCC(O)CC2)c(F)c1 (stereo not given)	< 50
COc1c(C(C)Nc2ncnc3[nH]cnc23)cc(Cl)c(C)c1C1CNC(=O)C1 (stereo not given)	< 50
COc1ncc(-c2cc(Cl)cc(C(C)Nc3ncnc4[nH]cnc34)c2OC)cn1 (stereo not given)	100 to 250
COc1c(C(C)Nc2ncnc3[nH]cnc23)cc(Cl)c(C)c1-c1ccc(C(=O)NC2CCC2)c(F)c1 (stereo not given)	< 50
COc1c(C(C)Nc2ncnc3[nH]cnc23)cc(Cl)c(C)c1-c1cnn(C2(CC#N)CC(C#N)C2)c1 (stereo not given)	< 50
COc1c(-c2cncnc2)cc(Cl)cc1C(C)Nc1ncnc2[nH]cnc12 (stereo not given)	50 to 100
COc1c(-c2ccnn2C)cc(Cl)cc1C(C)Nc1ncnc2[nH]cnc12 (stereo not given)	50 to 100
COc1c(-c2ccc(NC(C)=O)cc2)cc(Cl)cc1C(C)Nc1ncnc2[nH]cnc12 (stereo not given)	50 to 100
COc1c(C(C)Nc2ncnc3[nH]cnc23)cc(Cl)c(C)c1-c1ccc(C(=O)N2CCOCC2)c(F)c1 (stereo not given)	< 50
